Experimental findings from patent US9402847B2, “Combinations comprising (S)-4-amino-N-(1-(4-chlorophenyl)-3-hydroxypropyl)-1-(7H-pyrrolo[2,3-d]pyrimidin-4-yl)piperidine-4-carboxamide” (AstraZeneca AB, priority 2011, dated 2016) are described below.

One assay concerns BT474c model. In words: BT474c tumour xenograft in nude mice, tumour volume by calipers. The format is in vivo. How it is done: (§1) Tumour cells were implanted subcutaneously into the flank of nude mice, then a tumour was allowed to grow in each mouse until it reached the desired starting volume for the particular experiment (approximately 0.6 cm^3 for the BT474c experiment, and approximately 0.15 cm^3 for the HCC-1187 experiment). The mice were then randomised into groups—each group destined to receive one of the four treatment regimes described in each of FIGS. 1 and 2. The mice were then dosed as described in FIGS. 1 and 2, where docetaxel was administered intravenously, and Compound (I) (as the free base) was administered orally. Calipers were used to monitor tumour sizes during these experiments, and the results are plotted on the graphs of FIGS. 1 and 2.
(§2) The BT-474 tumour cell line (human mammary carcinoma) was obtained from Dr Jose Baselga (at Laboratorio Recerca Oncologica, Paseo Vall D'Hebron 119-129, Barcelona 08035, Spain). This cell line was subcloned and a certain population referred herein to as BT474c was obtained. The HCC-1187 cell line is available from ATCC (www.atcc.org).

The subject of assay [1] is HCC-1187 breast cancer xenografts. In words: HCC-1187 breast cancer xenografts in nude mice, tumour volume by calipers. Type of assay: in vivo. As to conditions: for efficacy of combination versus docetaxel monotherapy: AZD5363 300 mg/kg once daily, 4 days on, 3 days off, 3 weekly cycles. As for the experimental part: In these experiments the indicated agent(s) where being administered in 2 weekly dosage cycles, then there was no dosing in the 3rd week (days 15-21 inclusive). The indicated agent(s) were again administered in further weekly dosage cycles from week 4 onwards.
Animals were dosed with compounds over a 3 week period (3 weekly cycles of docetaxel and 3 weekly cycles of AZD5363 300 mg/kg once daily, 4 days on, 3 days off). […] Following the 3 weekly cycles of treatment, animals were not treated with compound, and recovery of tumour growth was monitored.
as §1, §2

With `NC1(C(=O)N[C@@H](CCO)c2ccc(Cl)cc2)CCN(c2ncnc3[nH]ccc23)CC1` [Compound (I), (S)-4-amino-N-(1-(4-chlorophenyl)-3-hydroxypropyl)-1-(7H-pyrrolo[2,3-d]pyrimidin-4-yl)piperidine-4-carboxamide], in the assay with BT474c model (BT474c model, single dose of docetaxel), the sensitisation to docetaxel result is given as “greatly sensitise”. Moreover, the “effect at regulating tumour volume, combination compared with either component alone” value with BT474c model (Compound (I) in combination with docetaxel) was “more than an additive effect”. The “change in tumour volume” value in the assay on BT474c model (FIG. 1, BT474c model, 16-day period, Compound (I) free base orally in combination with docetaxel intravenously) is “significant tumour shrinkage”. Besides, the “antitumour activity, intermittent versus continuous schedule of Compound (I)” value in assay [1] (FIG. 2, HCC-1187 model, 55-day period, in combination with weekly cycles of docetaxel) was “similarly sustained antitumour activity”. Moreover, the “efficacy of combination versus docetaxel monotherapy” value in assay [1] (FIG. 3, docetaxel administered 24 hours after the final dose of AZD5363) is recorded as “antagonistic”; in assay [1] (FIG. 3, docetaxel dosed 1 hour (same day) before first administration of AZD5363) it was “greater efficacy than docetaxel monotherapy”; in assay [1] (FIG. 3, docetaxel dosed 24 hours (day before) before first administration of AZD5363), “greater efficacy than docetaxel monotherapy”. The “tumour growth delay after the 3 weekly cycles of treatment” value in assay [1] (FIG. 3, docetaxel administered 1 hour before AZD5363, compared with the other schedules investigated) is recorded as “longest tumour growth delay”.
